Reference: paper PMC3735939, “The low levels of eicosapentaenoic acid in rat brain phospholipids are maintained via multiple redundant mechanisms” (Journal of Lipid Research, 2013)
Where “and” joins values, the source holds several entries; their conditions need not be identical. Identical values can stand only once.

Key:
[1] = cited from earlier work
[2] = cited from earlier work; remark: listed apart in the source
[3] = system: mitochondrial FA β-oxidation; assay: Radioactivity in brain aqueous fraction (marker of β-oxidation) after 5 min intravenous 14C-tracer infusion; format: in vivo, rat; details: vehicle injection; 5 min iv infusion of tracer
Experimental: (§1) Twenty-four hours postsurgery, a second catheter (iv catheter 24 gauge/0.75 inch, Angiocath™; Becton Dickinson) was implanted into the tail vein where rats received either vehicle or 10 mg/kg of MEP. Ten minutes post injection of vehicle or MEP, the tail vein catheter was connected to a syringe containing radiolabeled ^14C-palmitate (n = 8), ^14C-DHA (n = 6), or ^14C-EPA (n = 7) attached to a computer-controlled variable speed pump (PHD 22/2000; Harvard Apparatus, Holliston, MA). […] Each rat received a dose of 76 μCi ^14C-palmitate, 76 μCi ^14C-DHA, or 78 μCi ^14C-EPA. […] The radiotracer infusions continued until rats were euthanized. The brain was excised and cut sagittally. Both hemispheres were stored at −80°C for radioactive and biochemical analyses. Plasma was isolated from whole blood via microcentrifugation at 6,200 rpm (2,000 g) for 5 min and stored at −80°C. Total lipids from one brain hemisphere and from plasma were extracted by the method of Folch, Lees, and Sloane Stanley ([39]). Isolation of various neutral lipid and phospholipid classes from the total lipid extract was previously described by Chen, Liu, and Bazinet ([6]).

[4] = In vivo kinetics of FA incorporation and turnover in brain phospholipids (intravenous radiotracer infusion, kinetic model); set-up: species or system rat
Experimental: Twenty-four hours postsurgery, a second catheter (iv catheter 24 gauge/0.75 inch, Angiocath™; Becton Dickinson) was implanted into the tail vein where rats received either vehicle or 10 mg/kg of MEP. […] The radiotracers were infused for 5 min via the tail vein catheter at a rate of 0.223(1 + e^−19.2t) ml/min (t is infusion time in minutes) ([37]) which achieves a steady-state plasma radioactivity within 1 min ([18], [38]). […] During the 5 min infusion, blood samples were collected from the jugular vein at approximately 0, 0.25, 0.5, 0.75, 1.5, 3, 4, and 5 min while the unanesthetized rat was mobile in the infusion box with food and water. […] After 5 min, the rats were rapidly euthanized by head-focused high-energy microwave irradiation (13.5 kW for 1.6 s; Cober Electronics Inc., Stratford, CT). The radiotracer infusions continued until rats were euthanized. The brain was excised and cut sagittally. Both hemispheres were stored at −80°C for radioactive and biochemical analyses. Plasma was isolated from whole blood via microcentrifugation at 6,200 rpm (2,000 g) for 5 min and stored at −80°C.
The model for in vivo kinetics of brain FAs in rats has been previously described ([17], [18], [21], [23], [25], [37], [41]).
Because the infusion is 5 min, contributions of FA from de novo synthesis and esterified plasma FA are negligible ([18], [20], [23], [41]); thus only contributions from plasma unesterified FAs and acyl-CoA pools were considered in the calculation of λpalmitate, DHA, or EPA .

[5] = Identification of radiolabeled FAs in brain phospholipids by HPLC and LSC after 14C-EPA infusion; format: in vivo, rat; details: for percent of total radiolabeled FAs: brain total phospholipids;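 for radiolabeled FA composition: percent of radiolabeled FAs within each phospholipid class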
Experimental: as §1, with “([6]). FA methyl esters and radioactive acyl-CoA analysis were previously described by Chen, Liu, and Bazinet ([6]).” for “([6]).”

CC/C=C\C/C=C\C/C=C\C/C=C\C/C=C\C/C=C\CCC(=O)O [DHA, docosahexaenoic acid]
Jin, reported [1]: 150 to 190 nmol/g/day | Jout net rate of loss from brain phospholipids [2]: 58 to 257 nmol/g/day | loss t1/2 from brain phospholipids [2]: 33 days | rate of loss from brain phospholipids [2]: 2 % per day | radioactivity of brain aqueous fraction [3]: 17 nCi/g brain | FFA rate of turnover ([4]; ChoGpl, MEP): 90 ± 20 %/day | JFA net incorporation rate from brain acyl-CoA ([4]; ChoGpl, MEP): 1,234 ± 344 nmol/g/day | Jin net incorporation rate from plasma unesterified FA ([4]; ChoGpl, MEP): 4.3 ± 0.38 nmol/g/day | FFA rate of turnover ([4]; ChoGpl, Vehicle): 150 ± 14 %/day | JFA net incorporation rate from brain acyl-CoA ([4]; ChoGpl, Vehicle): 2,146 ± 225 nmol/g/day | Jin net incorporation rate from plasma unesterified FA ([4]; ChoGpl, Vehicle): 5.2 ± 0.62 nmol/g/day | FFA rate of turnover ([4]; EtnGpl, MEP): 37 ± 9.6 %/day | JFA net incorporation rate from brain acyl-CoA ([4]; EtnGpl, MEP): 2,030 ± 492 nmol/g/day | Jin net incorporation rate from plasma unesterified FA ([4]; EtnGpl, MEP): 7.2 ± 1.2 nmol/g/day | FFA rate of turnover ([4]; EtnGpl, Vehicle): 55 ± 5.4 %/day | JFA net incorporation rate from brain acyl-CoA ([4]; EtnGpl, Vehicle): 3,233 ± 184 nmol/g/day | Jin net incorporation rate from plasma unesterified FA ([4]; EtnGpl, Vehicle): 7.9 ± 1.4 nmol/g/day | FFA rate of turnover ([4]; PtdIns, MEP): 308 ± 105 %/day | JFA net incorporation rate from brain acyl-CoA ([4]; PtdIns, MEP): 477 ± 106 nmol/g/day | Jin net incorporation rate from plasma unesterified FA ([4]; PtdIns, MEP): 1.7 ± 0.3 nmol/g/day | FFA rate of turnover ([4]; PtdIns, Vehicle): 458 ± 156 %/day | JFA net incorporation rate from brain acyl-CoA ([4]; PtdIns, Vehicle): 688 ± 144 nmol/g/day | Jin net incorporation rate from plasma unesterified FA ([4]; PtdIns, Vehicle): 1.8 ± 0.078 nmol/g/day | FFA rate of turnover ([4]; PtdSer, MEP): 8.4 ± 3.1 %/day | JFA net incorporation rate from brain acyl-CoA ([4]; PtdSer, MEP): 198 ± 79 nmol/g/day | Jin net incorporation rate from plasma unesterified FA ([4]; PtdSer, MEP): 0.68 ± 0.11 nmol/g/day | FFA rate of turnover ([4]; PtdSer, Vehicle): 9.2 ± 2.1 %/day | JFA net incorporation rate from brain acyl-CoA ([4]; PtdSer, Vehicle): 237 ± 50 nmol/g/day | Jin net incorporation rate from plasma unesterified FA ([4]; PtdSer, Vehicle): 0.56 ± 0.053 nmol/g/day | FFA rate of turnover ([4]; Total PL, MEP): 51 ± 10 %/day | JFA net incorporation rate from brain acyl-CoA ([4]; Total PL, MEP): 4,390 ± 988 nmol/g/day | Jin net incorporation rate from plasma unesterified FA ([4]; Total PL, MEP): 16 ± 1.2 nmol/g/day | FFA rate of turnover ([4]; Total PL, Vehicle): 75 %/day and 75 ± 7.7 %/day | JFA net incorporation rate from brain acyl-CoA ([4]; Total PL, Vehicle): 7,259 ± 958 nmol/g/day | Jin net incorporation rate from plasma unesterified FA ([4]; Total PL, Vehicle): 17 nmol/g/day and 17 ± 1.8 nmol/g/day | Jin, percent lower than reported Jin ([4]; rat, in vivo): 89–91% | fold difference in λ between DHA and EPA ([4]; rat, in vivo): 50 fold | λ dilution factor ([4]; vehicle): 0.0024 ± 0.0003 | FFA into brain total phospholipids, fold higher than EPA ([4]; vehicle injection): 4 fold | Jin into brain total phospholipids, fold higher than EPA ([4]; vehicle injection): 3 fold | t1/2, fold lower than EPA ([4]; vehicle injection): 4 fold | radiolabeled FA composition ([5]; ChoGpl, MEP-treated rats): 4% | radiolabeled FA composition ([5]; ChoGpl, vehicle-treated rats): 11% | radiolabeled FA composition ([5]; EtnGpl, MEP-treated rats): 14% | radiolabeled FA composition ([5]; EtnGpl, vehicle-treated rats): 29% | percent of total radiolabeled FAs ([5]; MEP-treated rats): 3% | percent of total radiolabeled FAs ([5]; vehicle-treated rats): 10%
